Source: ChEMBL document CHEMBL1141977 (Bioorg Med Chem Lett, 2005)

How the values were obtained:
[1] = target: Sodium-dependent serotonin transporter (Rattus norvegicus, UniProt P31652); test: Binding affinity determined against Serotonin transporter determined by displacement of [3H]paroxetine from rat cortical membranes; type: cell membranes, Membrane
[2] = target: T1, 5-hydroxytryptamine receptor 1A (Homo sapiens) (UniProt P08908); test: Intrinsic activity towards 5-HT1A receptor using [35S]GTP-gamma-S, binding assay; type: functional
T1 sequence (whole entry): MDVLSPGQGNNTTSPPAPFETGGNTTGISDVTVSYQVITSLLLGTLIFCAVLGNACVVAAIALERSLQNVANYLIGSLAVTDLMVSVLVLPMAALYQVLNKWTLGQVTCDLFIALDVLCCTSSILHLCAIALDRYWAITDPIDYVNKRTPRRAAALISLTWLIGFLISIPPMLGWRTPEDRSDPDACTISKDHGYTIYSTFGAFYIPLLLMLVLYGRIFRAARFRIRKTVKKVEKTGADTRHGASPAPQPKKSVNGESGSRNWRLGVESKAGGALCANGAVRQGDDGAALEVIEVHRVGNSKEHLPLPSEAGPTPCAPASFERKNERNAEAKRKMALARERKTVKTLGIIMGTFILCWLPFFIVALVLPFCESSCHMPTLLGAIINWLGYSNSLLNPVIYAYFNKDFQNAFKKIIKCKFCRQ

[3] = target: T2, 5-hydroxytryptamine receptor 1A (Homo sapiens, UniProt P08908); test: Binding affinity determined against human 5-hydroxytryptamine 1A receptors transfected into CHO cells.; type: cell-based
T2 sequence (P08908 whole entry): T1 sequence (whole entry)

Sodium-dependent serotonin transporter, sequence (P31652 whole entry): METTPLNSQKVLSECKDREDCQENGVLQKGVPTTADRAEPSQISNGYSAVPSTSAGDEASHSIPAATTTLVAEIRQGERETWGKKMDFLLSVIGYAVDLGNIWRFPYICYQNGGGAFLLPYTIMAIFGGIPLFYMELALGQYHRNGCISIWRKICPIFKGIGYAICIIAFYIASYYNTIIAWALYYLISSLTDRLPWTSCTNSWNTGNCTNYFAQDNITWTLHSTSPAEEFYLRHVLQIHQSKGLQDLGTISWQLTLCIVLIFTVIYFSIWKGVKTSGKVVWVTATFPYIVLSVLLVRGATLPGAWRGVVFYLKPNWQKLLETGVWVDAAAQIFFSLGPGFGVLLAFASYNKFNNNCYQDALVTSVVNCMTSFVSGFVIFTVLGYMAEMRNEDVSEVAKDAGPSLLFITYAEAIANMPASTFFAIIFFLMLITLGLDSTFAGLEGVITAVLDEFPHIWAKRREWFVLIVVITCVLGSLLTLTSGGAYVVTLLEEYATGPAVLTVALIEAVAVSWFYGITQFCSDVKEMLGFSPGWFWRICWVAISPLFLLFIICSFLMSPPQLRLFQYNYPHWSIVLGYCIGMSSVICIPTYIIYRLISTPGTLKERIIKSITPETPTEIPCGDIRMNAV

Compound	Ki [1] [µM]	Emax [2] [%]	Ki [3] [µM]
Fc1ccc2[nH]cc([C@H]3CC[C@@H](NCC4COc5ccccc5O4)CC3)c2c1 (stereo not given in full)	0.0232	44	0.332
Fc1ccc2[nH]cc([C@H]3CC[C@@H](NCCOc4cccc5[nH]ccc45)CC3)c2c1	0.0126	7	–
Fc1ccc2[nH]cc([C@H]3CC[C@H](N4CCN(c5cccc6[nH]ccc56)CC4)CC3)c2c1	–	43	–
Fc1ccc2[nH]cc([C@H]3CC[C@@H](N4CCN(c5cccc6c5OCCO6)CC4)CC3)c2c1	0.00531	0	–
Fc1ccc2[nH]cc([C@H]3CC[C@@H](N4CCN(c5cccc6[nH]ccc56)CC4)CC3)c2c1	–	10	–
COc1ccccc1N1CCN([C@H]2CC[C@@H](c3c[nH]c4ccc(F)cc43)CC2)CC1	0.0033	5	0.129
Fc1ccc2[nH]cc([C@H]3CC[C@H](NCCOc4cccc5c4OCCO5)CC3)c2c1	0.00105	43	–
COc1ccccc1N1CCN([C@H]2CC[C@H](c3c[nH]c4ccc(F)cc43)CC2)CC1	0.0461	29	0.0143
Fc1ccc2[nH]cc([C@H]3CC[C@H](NCC4COc5ccccc5O4)CC3)c2c1 (stereo not given in full)	0.0141	94	0.194
Fc1ccc2[nH]cc([C@H]3CC[C@H](N4CCN(c5cccc6c5OCCO6)CC4)CC3)c2c1	0.0672	57	–

More lines, now with the values ahead:

Ki [1] [µM]	Emax [2] [%]	Ki [3] [µM]	Compound
0.00173	59	–	Fc1ccc2[nH]cc([C@H]3CC[C@H](NCCOc4cccc5[nH]ccc45)CC3)c2c1
–	22	0.307	COc1ccccc1OCCN[C@H]1CC[C@@H](c2c[nH]c3ccc(F)cc32)CC1
–	80	0.0224	COc1ccccc1OCCN[C@H]1CC[C@H](c2c[nH]c3ccc(F)cc32)CC1
0.0121	27	–	Fc1ccc2[nH]cc([C@H]3CC[C@@H](NCCOc4cccc5c4OCCO5)CC3)c2c1
